From patent publication US8962674B2 (Tokyo Institute of Technology, priority 2006, dated 2015)

Row | melting point | SMILES
1 | 153 to 156 °C | O=C(/C=C/c1ccc(O)cc1)CC(=O)/C=C/c1cc(F)cc(F)c1 [CU468, (1E,6E)-1-(3,5-difluorophenyl)-7-(4-hydroxyphenyl)hepta-1,6-diene-3,5-dione]
2 | 223 to 232 °C | O=C(/C=C/c1ccc(O)cc1)CC(=O)/C=C/c1ccc(Br)cc1F [CU471, (1E,6E)-1-(4-bromo-2-fluorophenyl)-7-(4-hydroxyphenyl)hepta-1,6-diene-3,5-dione]
3 | 180 to 188 °C | O=C(/C=C/c1ccc(O)cc1)CC(=O)/C=C/c1ccccc1-c1ccccc1 [CU472, (1E,6E)-1-(biphenyl-2-yl)-7-(4-hydroxyphenyl)hepta-1,6-diene-3,5-dione]
4 | 168 to 174 °C | O=C(/C=C/c1ccc(O)cc1)CC(=O)/C=C/c1cc(C(F)(F)F)ccc1F [CU473, (1E,6E)-1-(2-fluoro-5-trifluoromethylphenyl)-7-(4-hydroxyphenyl)hepta-1,6-diene-3,5-dione]
5 | 159 to 165 °C | CCCN(CCC)C(=O)c1cccc(/C=C/C(=O)CC(=O)/C=C/c2ccc(O)cc2)c1 [CU474, (1E,6E)-1-[3-(di-n-propylaminocarbonyl)phenyl]-7-(4-hydroxyphenyl)hepta-1,6-diene-3,5-dione]
6 | 145 to 150 °C | COC(=O)c1ccccc1/C=C/C(=O)CC(=O)/C=C/c1ccc(O)cc1 [CU478, (1E,6E)-1-(4-hydroxyphenyl)-7-[2-(methoxycarbonyl)phenyl]hepta-1,6-diene-3,5-dione]
7 | 210 to 218 °C | CN(C)C(=O)c1ccccc1/C=C/C(=O)CC(=O)/C=C/c1ccc(O)cc1 [CU479, (1E,6E)-1-[2-(dimethylaminocarbonyl)phenyl]-7-(4-hydroxyphenyl)hepta-1,6-diene-3,5-dione]
8 | 86 to 90 °C | CN(C)S(=O)(=O)c1ccccc1/C=C/C(=O)CC(=O)/C=C/c1ccc(O)cc1 [CU480, (1E,6E)-1-[2-(dimethylaminosulfonyl)phenyl]-7-(4-hydroxyphenyl)hepta-1,6-diene-3,5-dione]
9 | 151 to 155 °C | COc1ccc([N+](=O)[O-])c(/C=C/C(=O)CC(=O)/C=C/c2ccc(O)cc2)c1 [CU481, (1E,6E)-1-(4-hydroxyphenyl)-7-(5-methoxy-2-nitrophenyl)hepta-1,6-diene-3,5-dione]
10 | 186 to 193 °C | Nc1ccccc1/C=C/C(=O)CC(=O)/C=C/c1ccc(O)cc1 [CU482, (1E,6E)-1-(2-aminophenyl)-7-(4-hydroxyphenyl)hepta-1,6-diene-3,5-dione]
11 | 163 to 167 °C | CS(=O)(=O)Oc1ccccc1/C=C/C(=O)CC(=O)/C=C/c1ccc(O)cc1 [CU483, (1E,6E)-1-(4-hydroxyphenyl)-7-[2-(methylsulfonyloxy)phenyl]hepta-1,6-diene-3,5-dione]
12 | 157 to 160 °C | CSc1ccccc1/C=C/C(=O)CC(=O)/C=C/c1ccc(O)cc1 [CU484, (1E,6E)-1-(4-hydroxyphenyl)-7-[2-(methylthio)phenyl]hepta-1,6-diene-3,5-dione]
13 | 155 to 159 °C | O=C(/C=C/c1ccc(O)cc1)CC(=O)/C=C/c1ccccc1Br [CU486, (1E,6E)-1-(2-bromophenyl)-7-(4-hydroxyphenyl)hepta-1,6-diene-3,5-dione]
14 | 186 to 192 °C | Nc1ccc(O)cc1/C=C/C(=O)CC(=O)/C=C/c1ccc(O)cc1 [CU488, (1E,6E)-1-(2-amino-5-hydroxyphenyl)-7-(4-hydroxyphenyl)hepta-1,6-diene-3,5-dione]
15 | 175 to 179 °C | Nc1ccc(OCc2ccccc2)cc1/C=C/C(=O)CC(=O)/C=C/c1ccc(O)cc1 [CU489, (1E,6E)-1-(2-amino-5-benzyloxyphenyl)-7-(4-hydroxyphenyl)hepta-1,6-diene-3,5-dione]
16 | 180 to 183 °C | O=C(/C=C/c1ccc(O)cc1)CC(=O)/C=C/c1cc(OCc2c(F)cccc2Cl)ccc1[N+](=O)[O-] [CU492, (1E,6E)-1-[5-(2-chloro-6-fluorobenzyloxy)-2-nitrophenyl]-7-(4-hydroxyphenyl)hepta-1,6-diene-3,5-dione]
17 | 157 to 161 °C | O=C(/C=C/c1ccc(O)cc1)CC(=O)/C=C/c1cc(OCc2ccc(Cl)cc2Cl)ccc1[N+](=O)[O-] [CU493, (1E,6E)-1-[5-(2,4-dichlorobenzyloxy)-2-nitrophenyl]-7-(4-hydroxyphenyl)hepta-1,6-diene-3,5-dione]
18 | 68 to 72 °C | CN(C)c1ccccc1/C=C/C(=O)CC(=O)/C=C/c1ccc(O)cc1 [CU495, (1E,6E)-1-(2-dimethylaminophenyl)-7-(4-hydroxyphenyl)hepta-1,6-diene-3,5-dione]
19 | 73 to 80 °C | O=C(/C=C/c1ccc(O)cc1)CC(=O)/C=C/c1ccccc1N1CCCC1 [CU496, (1E,6E)-1-(4-hydroxyphenyl)-7-[2-(pyrrolidin-1-yl)phenyl]hepta-1,6-diene-3,5-dione]
20 | 77 to 84 °C | O=C(/C=C/c1ccc(O)cc1)CC(=O)/C=C/c1ccccc1N1CCCCC1 [CU497, (1E,6E)-1-(4-hydroxyphenyl)-7-[2-(piperidin-1-yl)phenyl]hepta-1,6-diene-3,5-dione]
21 | 188 to 192 °C | O=C(/C=C/c1ccc(O)cc1)CC(=O)/C=C/c1ccccc1N1CCOCC1 [CU498, (1E,6E)-1-(4-hydroxyphenyl)-7-(2-morpholinophenyl)hepta-1,6-diene-3,5-dione]
22 | 126 to 131 °C | CS(=O)(=O)N1CCN(c2ccccc2/C=C/C(=O)CC(=O)/C=C/c2ccc(O)cc2)CC1 [CU500, (1E,6E)-1-(4-hydroxyphenyl)-7-{2-[4-(methylsulfonyl)piperazin-1-yl]phenyl}hepta-1,6-diene-3,5-dione]
23 | 102 to 110 °C | O=C(/C=C/c1ccc(O)cc1)CC(=O)/C=C/c1ccccc1N1CCN(CCO)CC1 [CU501, (1E,6E)-1-{2-[4-(2-hydroxyethyl)piperazin-1-yl]phenyl}-7-(4-hydroxyphenyl)hepta-1,6-diene-3,5-dione]

Further lines, the compound ahead of its results:

Row | SMILES | melting point
24 | COCOc1ccc(OC)cc1/C=C/C(=O)CC(=O)/C=C/c1cc(OC)ccc1OCOC [CU447, (1E,6E)-1,7-bis[5-methoxy-2-(methoxymethoxy)phenyl]hepta-1,6-diene-3,5-dione] | 140 to 143 °C
25 | CCN(CC)c1ccc(/C=C/C(=O)CC(=O)/C=C/c2ccc(O)cc2)c(OCc2ccc(OC)cc2)c1 [CU448, (1E,6E)-1-[4-diethylamino-2-(4-methoxybenzyloxy)phenyl]-7-(4-hydroxyphenyl)hepta-1,6-diene-3,5-dione] | 71 to 78 °C
26 | CCN(CC)c1ccc(/C=C/C(=O)CC(=O)/C=C/c2ccc(O)cc2)c(OCc2cccnc2)c1 [CU449, (1E,6E)-1-[4-diethylamino-2-(pyridin-3-ylmethoxy)phenyl]-7-(4-hydroxyphenyl)hepta-1,6-diene-3,5-dione] | 180 to 186 °C
27 | CCN(CC)c1ccc(/C=C/C(=O)CC(=O)/C=C/c2ccc(O)cc2)c(OCc2c(F)cccc2Cl)c1 [CU450, (1E,6E)-1-[2-(2-chloro-6-fluorobenzyloxy)-4-diethylaminophenyl]-7-(4-hydroxyphenyl)hepta-1,6-diene-3,5-dione] | 172 to 175 °C
28 | CCN(CC)c1ccc(/C=C/C(=O)CC(=O)/C=C/c2ccc(O)cc2)c(OCc2ccc(Cl)cc2Cl)c1 [CU451, (1E,6E)-1-[2-(2,4-dichlorobenzyloxy)-4-diethylaminophenyl]-7-(4-hydroxyphenyl)hepta-1,6-diene-3,5-dione] | 73 to 80 °C
29 | CCN(CC)c1ccc(/C=C/C(=O)CC(=O)/C=C/c2ccc(O)cc2)c(OCc2ccc(C(C)(C)C)cc2)c1 [CU452, (1E,6E)-1-[2-(4-tert-butylbenzyloxy)-4-diethylaminophenyl]-7-(4-hydroxyphenyl)hepta-1,6-diene-3,5-dione] | 187 to 190 °C
30 | COc1cc(/C=C/C(=O)CC(=O)/C=C/c2cccc3cccnc23)ccc1O [CU453, (1E,6E)-1-(4-hydroxy-3-methoxyphenyl)-7-(quinolin-8-yl)hepta-1,6-diene-3,5-dione] | 83 to 87 °C
31 | COc1ccc(/C=C/C(=O)CC(=O)/C=C/c2cccc3cccnc23)cc1O [CU454, (1E,6E)-1-(3-hydroxy-4-methoxyphenyl)-7-(quinolin-8-yl)hepta-1,6-diene-3,5-dione] | 80 to 85 °C
32 | COCOc1ccc(OC)cc1/C=C/C(=O)CC(=O)/C=C/c1cc(OC)ccc1O [CU456, (1E,6E)-1-(2-hydroxy-5-methoxyphenyl)-7-[5-methoxy-2-(methoxymethoxy)phenyl]hepta-1,6-diene-3,5-dione] | 131 to 138 °C
33 | COc1cc(/C=C/C(=O)CC(=O)/C=C/c2c[nH]c3cccc([N+](=O)[O-])c23)ccc1O [CU462, (1E,6E)-1-(4-hydroxy-3-methoxyphenyl)-7-(4-nitro-1H-indol-3-yl)hepta-1,6-diene-3,5-dione] | 232 to 237 °C
34 | COc1ccc(/C=C/C(=O)CC(=O)/C=C/c2c[nH]c3cccc([N+](=O)[O-])c23)cc1O [CU463, (1E,6E)-1-(3-hydroxy-4-methoxyphenyl)-7-(4-nitro-1H-indol-3-yl)hepta-1,6-diene-3,5-dione] | 226 to 233 °C
35 | O=C(/C=C/c1ccc(O)cc1)CC(=O)/C=C/c1cccc(Br)c1 [CU464, (1E,6E)-1-(3-bromophenyl)-7-(4-hydroxyphenyl)hepta-1,6-diene-3,5-dione] | 156 to 160 °C
36 | O=C(/C=C/c1ccc(O)cc1)CC(=O)/C=C/c1cc(Cl)ccc1[N+](=O)[O-] [CU465, (1E,6E)-1-(5-chloro-2-nitrophenyl)-7-(4-hydroxyphenyl)hepta-1,6-diene-3,5-dione] | 241 to 250 °C
37 | O=C(/C=C/c1ccc(O)cc1)CC(=O)/C=C/c1cc(Br)ccc1F [CU466, (1E,6E)-1-(5-bromo-2-fluorophenyl)-7-(4-hydroxyphenyl)hepta-1,6-diene-3,5-dione] | 177 to 203 °C
38 | O=C(/C=C/c1ccc(O)cc1)CC(=O)/C=C/c1ccccc1C(F)(F)F [CU467, (1E,6E)-1-(4-hydroxyphenyl)-7-(2-trifluoromethylphenyl)hepta-1,6-diene-3,5-dione] | 181 to 185 °C
39 | CC(C)(C)OC(=O)N1CCN(c2ccccc2/C=C/C(=O)CC(=O)/C=C/c2ccc(O)cc2)CC1 [CU499, (1E,6E)-1-{2-[4-(tert-butoxycarbonyl)piperazin-1-yl]phenyl}-7-(4-hydroxyphenyl)hepta-1,6-diene-3,5-dione] | 115 to 121 °C
